Assay results reported in PubChem BioAssay (NCI).
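Tested at 5 concentrations; 48 h exposure; 96-well plates; endpoints linearly interpolated, else capped at highest concentration. Definition used: TGI = concentration required for complete inhibition of growth.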

Tests used:
Test in all cases: NCI tumour cell line growth inhibition, 48 h
SN12C renal = test system: SN12C renal
DMS 114 small cell lung = test system: DMS 114 small cell lung
SW-620 colon = test system: SW-620 colon
NCI-H522 lung = test system: NCI-H522 lung
LXFL 529 NSCLC = test system: LXFL 529 NSCLC
TK-10 renal = test system: TK-10 renal
NCI-H23 lung = test system: NCI-H23 lung
RXF 393 renal = test system: RXF 393 renal
MALME-3M melanoma = test system: MALME-3M melanoma
SF-539 CNS = test system: SF-539 CNS
OVCAR-3 ovarian = test system: OVCAR-3 ovarian
786-0 renal = test system: 786-0 renal
EKVX NSCLC = test system: EKVX NSCLC
LOX IMVI melanoma = test system: LOX IMVI melanoma
SK-MEL-2 melanoma = test system: SK-MEL-2 melanoma
HOP-92 NSCLC = test system: HOP-92 NSCLC
HCC-2998 colon = test system: HCC-2998 colon
U251 CNS = test system: U251 CNS
OVCAR-4 ovarian = test system: OVCAR-4 ovarian
UACC-257 melanoma = test system: UACC-257 melanoma
M14 melanoma = test system: M14 melanoma
NCI-H226 lung = test system: NCI-H226 lung
SNB-78 CNS = test system: SNB-78 CNS
SR leukemia = test system: SR leukemia
OVCAR-5 ovarian = test system: OVCAR-5 ovarian
HT29 colon = test system: HT29 colon
SNB-75 CNS = test system: SNB-75 CNS
UO-31 renal = test system: UO-31 renal
KM12 colon = test system: KM12 colon
NCI-H460 lung = test system: NCI-H460 lung
ACHN renal = test system: ACHN renal
OVCAR-8 ovarian = test system: OVCAR-8 ovarian
SK-MEL-28 melanoma = test system: SK-MEL-28 melanoma
HL-60(TB) leukemia = test system: HL-60(TB) leukemia
COLO 205 colon = test system: COLO 205 colon
A549 NSCLC = test system: A549 NSCLC
KM20L2 colon = test system: KM20L2 colon
HOP-62 NSCLC = test system: HOP-62 NSCLC
SF-268 CNS = test system: SF-268 CNS
SNB-19 CNS = test system: SNB-19 CNS
CAKI-1 renal = test system: CAKI-1 renal
SF-295 CNS = test system: SF-295 CNS
DMS 273 small cell lung = test system: DMS 273 small cell lung
MOLT-4 leukemia = test system: MOLT-4 leukemia
SK-OV-3 ovarian = test system: SK-OV-3 ovarian
RPMI-8226 leukemia = test system: RPMI-8226 leukemia
CCRF-CEM leukemia = test system: CCRF-CEM leukemia
UACC-62 melanoma = test system: UACC-62 melanoma
M19-MEL melanoma = test system: M19-MEL melanoma
IGROV1 ovarian = test system: IGROV1 ovarian
K-562 leukemia = test system: K-562 leukemia
HCT-116 colon = test system: HCT-116 colon
SK-MEL-5 melanoma = test system: SK-MEL-5 melanoma
A498 renal = test system: A498 renal
DLD-1 colon = test system: DLD-1 colon
HCT-15 colon = test system: HCT-15 colon

c1ccc2nc(-c3ccc4c(c3)OCO4)ccc2c1
TGI (SN12C renal): > 100 µM
TGI (DMS 114 small cell lung): 67.5 µM
TGI (SW-620 colon): > 100 µM
TGI (NCI-H522 lung): > 100 µM
TGI (LXFL 529 NSCLC): > 100 µM
TGI (TK-10 renal): > 100 µM
TGI (NCI-H23 lung): > 100 µM
TGI (RXF 393 renal): 58.9 µM
TGI (MALME-3M melanoma): 68 µM
TGI (SF-539 CNS): > 100 µM
TGI (OVCAR-3 ovarian): 71.1 µM
TGI (786-0 renal): > 100 µM
TGI (EKVX NSCLC): > 100 µM
TGI (LOX IMVI melanoma): 82.7 µM
TGI (SK-MEL-2 melanoma): > 100 µM
TGI (HOP-92 NSCLC): 19 µM
TGI (HCC-2998 colon): > 100 µM
TGI (U251 CNS): > 100 µM
TGI (OVCAR-4 ovarian): > 100 µM
TGI (UACC-257 melanoma): 48.7 µM
TGI (M14 melanoma): > 100 µM
TGI (NCI-H226 lung): 97.6 µM
TGI (SNB-78 CNS): > 100 µM
TGI (SR leukemia): 43.9 µM
TGI (OVCAR-5 ovarian): > 100 µM
TGI (HT29 colon): 79.7 µM
TGI (SNB-75 CNS): > 100 µM
TGI (UO-31 renal): 93.3 µM
TGI (KM12 colon): > 100 µM
TGI (NCI-H460 lung): > 100 µM
TGI (ACHN renal): > 100 µM
TGI (OVCAR-8 ovarian): > 100 µM
TGI (SK-MEL-28 melanoma): > 100 µM
TGI (HL-60(TB) leukemia): > 100 µM
TGI (COLO 205 colon): > 100 µM
TGI (A549 NSCLC): > 100 µM
TGI (KM20L2 colon): > 100 µM
TGI (HOP-62 NSCLC): 79.5 µM
TGI (SF-268 CNS): > 100 µM
TGI (SNB-19 CNS): > 100 µM
TGI (CAKI-1 renal): > 100 µM
TGI (SF-295 CNS): > 100 µM
TGI (DMS 273 small cell lung): 62.8 µM

CCCC(=O)OC[n+]1ccc2c(C)c3[nH]c4ccc(OC)cc4c3c(C)c2c1
TGI (DMS 114 small cell lung): 3.78 µM
TGI (TK-10 renal): 20.1 µM
TGI (MOLT-4 leukemia): 0.322 µM
TGI (MALME-3M melanoma): > 100 µM
TGI (SK-OV-3 ovarian): 14.9 µM
TGI (SK-MEL-2 melanoma): 7.12 µM
TGI (RPMI-8226 leukemia): 0.54 µM
TGI (U251 CNS): > 100 µM
TGI (UACC-257 melanoma): > 100 µM
TGI (SR leukemia): 2.89 µM
TGI (OVCAR-5 ovarian): 2.31 µM
TGI (UO-31 renal): 6.38 µM
TGI (KM12 colon): 1.77 µM
TGI (ACHN renal): 7.47 µM
TGI (HL-60(TB) leukemia): 1.82 µM
TGI (HOP-62 NSCLC): 3.08 µM
TGI (SF-268 CNS): > 100 µM
TGI (CAKI-1 renal): 13.6 µM

Cc1c(-c2c(C)c(=O)c3c(C(C)C)c(=O)c(=O)c(C=O)c-3c2=O)c(O)c2c(C=O)c(O)c(O)c(C(C)C)c2c1O
TGI (DMS 114 small cell lung): 5.82 µM
TGI (CCRF-CEM leukemia): 5.07 µM
TGI (NCI-H522 lung): 15.7 µM
TGI (LXFL 529 NSCLC): 12.8 µM
TGI (NCI-H23 lung): 10.5 µM
TGI (RXF 393 renal): 6.99 µM
TGI (MOLT-4 leukemia): 11.3 µM
TGI (MALME-3M melanoma): 15.2 µM
TGI (SF-539 CNS): 8.87 µM
TGI (OVCAR-3 ovarian): 7.02 µM
TGI (UACC-62 melanoma): 8.14 µM
TGI (SK-OV-3 ovarian): 13 µM
TGI (SK-MEL-2 melanoma): 3.68 µM
TGI (HOP-92 NSCLC): 7.49 µM
TGI (M19-MEL melanoma): 15.4 µM
TGI (RPMI-8226 leukemia): 9.9 µM
TGI (U251 CNS): 11.3 µM
TGI (OVCAR-4 ovarian): 12 µM
TGI (UACC-257 melanoma): 13.6 µM
TGI (M14 melanoma): 4.24 µM
TGI (SNB-78 CNS): 6.78 µM
TGI (SR leukemia): 17.1 µM
TGI (IGROV1 ovarian): 11.3 µM
TGI (OVCAR-5 ovarian): 7.82 µM
TGI (HT29 colon): 4.87 µM
TGI (SNB-75 CNS): 26.2 µM
TGI (UO-31 renal): 5.5 µM
TGI (K-562 leukemia): 10.7 µM
TGI (KM12 colon): 4.9 µM
TGI (NCI-H460 lung): 11.8 µM
TGI (ACHN renal): 10.3 µM
TGI (SK-MEL-28 melanoma): 16.4 µM
TGI (HCT-116 colon): 7.81 µM
TGI (HL-60(TB) leukemia): 11.1 µM
TGI (COLO 205 colon): 11.8 µM
TGI (HOP-62 NSCLC): 14.3 µM
TGI (SF-268 CNS): 18.8 µM
TGI (SNB-19 CNS): 17.6 µM
TGI (SF-295 CNS): 3.94 µM

CCC1=C(CC)C1(C#N)[N+](=O)[O-]
TGI (SN12C renal): > 100 µM
TGI (DMS 114 small cell lung): > 100 µM
TGI (SW-620 colon): > 100 µM
TGI (CCRF-CEM leukemia): > 100 µM
TGI (NCI-H522 lung): > 100 µM
TGI (LXFL 529 NSCLC): > 100 µM
TGI (TK-10 renal): > 100 µM
TGI (NCI-H23 lung): > 100 µM
TGI (MOLT-4 leukemia): > 100 µM
TGI (MALME-3M melanoma): > 100 µM
TGI (SF-539 CNS): > 100 µM
TGI (OVCAR-3 ovarian): > 100 µM
TGI (UACC-62 melanoma): > 100 µM
TGI (SK-OV-3 ovarian): > 100 µM
TGI (786-0 renal): > 100 µM
TGI (EKVX NSCLC): > 100 µM
TGI (LOX IMVI melanoma): > 100 µM
TGI (SK-MEL-2 melanoma): > 100 µM
TGI (SK-MEL-5 melanoma): > 100 µM
TGI (M19-MEL melanoma): > 100 µM
TGI (RPMI-8226 leukemia): > 100 µM
TGI (U251 CNS): > 100 µM
TGI (OVCAR-4 ovarian): > 100 µM
TGI (UACC-257 melanoma): > 100 µM
TGI (M14 melanoma): > 100 µM
TGI (NCI-H226 lung): > 100 µM
TGI (SNB-78 CNS): > 100 µM
TGI (SR leukemia): > 100 µM
TGI (IGROV1 ovarian): > 100 µM
TGI (OVCAR-5 ovarian): > 100 µM
TGI (HT29 colon): > 100 µM
TGI (UO-31 renal): > 100 µM
TGI (K-562 leukemia): > 100 µM
TGI (KM12 colon): > 100 µM
TGI (NCI-H460 lung): > 100 µM
TGI (ACHN renal): > 100 µM
TGI (OVCAR-8 ovarian): > 100 µM
TGI (A498 renal): > 100 µM
TGI (HCT-116 colon): > 100 µM
TGI (HL-60(TB) leukemia): > 100 µM
TGI (COLO 205 colon): > 100 µM
TGI (A549 NSCLC): > 100 µM
TGI (KM20L2 colon): > 100 µM
TGI (HOP-62 NSCLC): > 100 µM
TGI (SF-268 CNS): > 100 µM
TGI (SNB-19 CNS): > 100 µM
TGI (DLD-1 colon): > 100 µM
TGI (CAKI-1 renal): > 100 µM
TGI (SF-295 CNS): > 100 µM
TGI (DMS 273 small cell lung): > 100 µM
TGI (HCT-15 colon): > 100 µM
